Data as given in PubChem BioAssay (NCI).
“And” between values parts separate entries of the source, which are not always exact repeats. Identical values can stand only once.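 Results reflect a 48-hour exposure of cells in 96-well plates to compound at five concentrations. GI50 = concentration required for 50% inhibition of growth. At the TGI there is no net growth.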

What was measured:
Experiment in all cases: NCI tumour cell line growth inhibition, 48 h
A549 NSCLC = system: A549 NSCLC
UACC-62 melanoma = system: UACC-62 melanoma
OVCAR-8 ovarian = system: OVCAR-8 ovarian
HCT-15 colon = system: HCT-15 colon
EKVX NSCLC = system: EKVX NSCLC
HS 578T breast = system: HS 578T breast
HOP-62 NSCLC = system: HOP-62 NSCLC
MALME-3M melanoma = system: MALME-3M melanoma
SF-539 CNS = system: SF-539 CNS
OVCAR-5 ovarian = system: OVCAR-5 ovarian

SMILES	GI50 (A549 NSCLC)	TGI (A549 NSCLC)	GI50 (UACC-62 melanoma)	TGI (UACC-62 melanoma)	GI50 (OVCAR-8 ovarian)	TGI (OVCAR-8 ovarian)	GI50 (HCT-15 colon)	TGI (HCT-15 colon)	GI50 (EKVX NSCLC)	TGI (EKVX NSCLC)	GI50 (HS 578T breast)	TGI (HS 578T breast)	GI50 (HOP-62 NSCLC)	TGI (HOP-62 NSCLC)	GI50 (MALME-3M melanoma)	TGI (MALME-3M melanoma)	GI50 (SF-539 CNS)	TGI (SF-539 CNS)	GI50 (OVCAR-5 ovarian)	TGI (OVCAR-5 ovarian)
O=C1Nc2ccc3c(c2/C1=C\c1cc2c(cc1Br)OCO2)OCO3	0.731 µM	2.49 µM	0.359 µM	3.23 µM	0.855 µM	4.87 µM	0.515 µM	> 100 µM	0.639 µM	8.09 µM	0.376 µM	2.11 µM	0.393 µM	2.07 µM	0.423 µM	4.16 µM	0.311 µM	1.12 µM	1.55 µM	5.89 µM
COc1cc2c3cc1Oc1c(OC)c(OC)cc4c1C(Cc1ccc(O)c(c1)Oc1ccc(cc1)CC3N(C)CC2)N(C)CC4 (stereo not given)	14.4 µM	81.7 µM and 48.8 µM		> 100 µM and 29.2 µM	21.4 µM	> 100 µM	4.82 µM	37.6 µM and > 100 µM		> 100 µM	15.3 µM	55.3 µM and 43.4 µM	24.3 µM	> 100 µM and 64.8 µM	8.17 µM	> 100 µM and 23.8 µM	2.16 µM		8.3 µM	> 100 µM and 62.4 µM
COc1cccc(-c2nc3sccn3c2-c2ccnc(NCCCNS(=O)(=O)c3ccccc3)c2)c1	3.45 µM	> 100 µM	1.98 µM	5.08 µM	2.99 µM	> 100 µM	3.02 µM	> 100 µM	3.68 µM	> 100 µM	3.51 µM	> 100 µM	3.43 µM	> 100 µM	2.59 µM	9.73 µM	5.43 µM	> 100 µM	5.45 µM	> 100 µM
COc1cc(/C=C2\SC(N3CCCCC3)=NC2=O)ccc1OCCCCCCOc1ccc(/C=C2\SC(N3CCCCC3)=NC2=O)cc1OC	11.8 µM	30.9 µM	16.1 µM	67.1 µM	4.95 µM	31.1 µM	15.2 µM	53.1 µM	12 µM	76.6 µM	3.74 µM	25.7 µM	4.05 µM	16.3 µM	3.87 µM	30 µM	6.95 µM	24.2 µM	22.9 µM	59.1 µM
CN1CC[C@H](c2c(O)cc(O)c3c(=O)cc(-c4ccccc4Cl)oc23)[C@H](O)C1	0.0946 µM	> 10 µM	0.0515 µM	0.164 µM	0.0723 µM	> 10 µM		> 10 µM		0.559 µM	0.0618 µM	0.398 µM	0.0515 µM	> 2.62 µM	0.154 µM	0.594 µM	0.139 µM	0.542 µM	0.0533 µM	> 10 µM
CSC1=Nc2c(c(C)c(-c3ccccc3)n2COC(CO)CO)C2=NC(=O)CC(C)N12 (stereo not given)	> 100 µM	> 100 µM	> 100 µM	> 100 µM	> 100 µM	> 100 µM	> 100 µM	> 100 µM	> 100 µM	> 100 µM	> 100 µM	> 100 µM	98.1 µM	> 100 µM	> 100 µM	> 100 µM	> 100 µM	> 100 µM	> 100 µM	> 100 µM
Cc1cc(S(N)(=O)=O)c(S/C(=N\NS(=O)(=O)c2ccccc2)c2ccc(Cl)cc2)cc1Cl	> 100 µM	> 100 µM	> 100 µM	> 100 µM	> 100 µM	> 100 µM	> 100 µM	> 100 µM	> 100 µM	> 100 µM	39.8 µM	> 100 µM	> 100 µM	> 100 µM	65.4 µM	> 100 µM	> 100 µM	> 100 µM	> 100 µM	> 100 µM
COc1ccccc1NC(=O)C1=C(C)NC(C)=C(C(=O)Nc2ccccc2OC)C1c1ccco1		> 100 µM		22.9 µM		> 100 µM		> 100 µM		> 83.7 µM		9 µM		74.6 µM		> 100 µM		20.7 µM		> 100 µM
COc1ccc2c(c1)C(=O)c1c-2c(OCCN(C)C)nc2cc(OC)c(OC)cc12	4.2 µM	21.5 µM	51.5 µM	> 100 µM	1.62 µM	> 100 µM	9.67 µM	23.6 µM	22.6 µM	> 100 µM	12.8 µM	35.7 µM	1.32 µM	32 µM	12.1 µM	28.3 µM	10.6 µM	24.9 µM	23.7 µM	55.9 µM
CCn1c(-c2nonc2N)nc2cnc(Oc3cccc(NC(=O)c4ccc(N(C)C)cc4)c3)cc21	2.12 µM	> 25 µM	> 25 µM	> 25 µM	> 25 µM	> 25 µM	8.55 µM	> 25 µM	2.87 µM	> 25 µM	0.0623 µM	> 25 µM	> 25 µM	> 25 µM	> 25 µM	> 25 µM	18.7 µM	> 25 µM	> 25 µM	> 25 µM
COc1cc(NC2CCCCC2O)c2nc(-c3ccc(Cl)cc3)ccc2c1 (stereo not given)	6.05 µM	> 100 µM	11.1 µM	40.6 µM	12.2 µM	> 100 µM	2.94 µM	22.4 µM	18.1 µM	> 100 µM	2.88 µM	13.2 µM	5.96 µM	46.7 µM	7.45 µM	28 µM	10.5 µM	51.4 µM	19.1 µM	> 100 µM
COc1ccc(-c2c(N)noc2-c2cc(OC)c3c(c2)OCCO3)cc1	0.0101 µM	> 41.6 µM	< 0.01 µM	28.2 µM	0.0212 µM	> 33.2 µM	< 0.01 µM	> 100 µM	0.046 µM	> 100 µM	< 0.0106 µM	> 100 µM	< 0.0123 µM	> 54.8 µM	23.6 µM	> 100 µM	0.0121 µM	1.28 µM	0.0542 µM	> 100 µM
COc1cc(-c2nn(-c3cccc(NC(=O)CCN4CCN(c5ccccc5)CC4)c3)cc2-c2ccncc2)ccc1Cl	4.91 µM	> 100 µM	2.49 µM	8.01 µM	4.5 µM	> 100 µM	2.62 µM	> 100 µM	3.31 µM	> 100 µM	4.61 µM	> 100 µM	4.32 µM	> 100 µM	2.73 µM	14.3 µM	2.53 µM	18.4 µM	3.15 µM	> 100 µM
